Several values for one entry are separate records, joined by “and”; a condition that tells them apart may be missing. Equal entries are not always repeated. Toxic doses and inconclusive results are not listed. Rule as the data show it: active = T/C of 150% or more; inactive = T/C below 125%.
System: L1210 leukemia ip in BDF1 mice, survival T/C
Assay: NCI In Vivo Anticancer Drug Screen. Data for tumor model L1210 Leukemia (intraperitoneal) in B6D2F1 (BDF1) mice
Conditions: higher = longer survival
Outline: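 Tumor was transplanted into mice, which were then dosed with test compound or vehicle alone. Survival was recorded for each group, and the treated figure was expressed relative to the control figure.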

[1] = endpoint: mean survival time, dose: 100.0 mg/kg/injection, schedule: Q04DX003 (ip), vehicle: saline with Tween-80
[2] = endpoint: mean survival time, dose: 200.0 mg/kg/injection, schedule: Q04DX003 (ip), vehicle: saline with Tween-80
[3] = endpoint: mean survival time, dose: 400.0 mg/kg/injection, schedule: Q04DX003 (ip), vehicle: saline with Tween-80
[4] = endpoint: mean survival time, dose: 100.0 mg/kg/injection, schedule: Q01DX001 (ip), vehicle: saline
[5] = endpoint: mean survival time, dose: 200.0 mg/kg/injection, schedule: Q01DX001 (ip), vehicle: saline
[6] = endpoint: mean survival time, dose: 100.0 mg/kg/injection, schedule: Q01DX009 (ip), vehicle: saline
[7] = endpoint: mean survival time, dose: 100.0 mg/kg/injection, schedule: Q04DX003 (ip), vehicle: saline
[8] = endpoint: mean survival time, dose: 200.0 mg/kg/injection, schedule: Q01DX009 (ip), vehicle: saline
[9] = endpoint: mean survival time, dose: 200.0 mg/kg/injection, schedule: Q04DX003 (ip), vehicle: saline
[10] = endpoint: mean survival time, dose: 400.0 mg/kg/injection, schedule: Q01DX009 (ip), vehicle: saline
[11] = endpoint: mean survival time, dose: 400.0 mg/kg/injection, schedule: Q04DX003 (ip), vehicle: saline
[12] = endpoint: mean survival time, dose: 400.0 mg/kg/injection, schedule: Q01DX001 (ip), vehicle: saline
[13] = endpoint: mean survival time, dose: 100.0 mg/kg/injection, schedule: Q04DX002 (ip), vehicle: saline
[14] = endpoint: mean survival time, dose: 200.0 mg/kg/injection, schedule: Q04DX002 (ip), vehicle: saline
[15] = endpoint: mean survival time, dose: 400.0 mg/kg/injection, schedule: Q04DX002 (ip), vehicle: saline
[16] = endpoint: mean survival time, dose: 50.0 mg/kg/injection, schedule: Q01DX005 (ip), vehicle: other

Measured: T/C

Cc1cc(N(CCCl)CCCl)c(C)cc1NC(=O)c1ccccc1
inactive: endpoint: mean survival time, dose: 0.75 mg/kg/injection, schedule: Q01DX009 (ip), vehicle: other 109 % of control | endpoint: mean survival time, dose: 1.5 mg/kg/injection, schedule: Q01DX009 (ip), vehicle: other 105 % of control | endpoint: mean survival time, dose: 3.0 mg/kg/injection, schedule: Q01DX009 (ip), vehicle: other 124 % of control | endpoint: mean survival time, dose: 5.0 mg/kg/injection, schedule: Q01DX001 (ip), vehicle: other 118 % of control | endpoint: mean survival time, dose: 6.0 mg/kg/injection, schedule: Q01DX009 (ip), vehicle: carboxymethylcellulose (CMC) 119 % of control | endpoint: mean survival time, dose: 10.0 mg/kg/injection, schedule: Q01DX001 (ip), vehicle: other 114 % of control | endpoint: mean survival time, dose: 10.0 mg/kg/injection, schedule: Q01DX001 (ip), vehicle: saline 117 % of control | endpoint: mean survival time, dose: 10.0 mg/kg/injection, schedule: Q01DX009 (ip), vehicle: carboxymethylcellulose (CMC) 119 % of control | endpoint: mean survival time, dose: 17.6 mg/kg/injection, schedule: Q01DX001 (ip), vehicle: carboxymethylcellulose (CMC) 111 % of control | endpoint: mean survival time, dose: 17.6 mg/kg/injection, schedule: Q01DX001 (ip), vehicle: other 110 % of control and 115 % of control | endpoint: mean survival time, dose: 18.0 mg/kg/injection, schedule: Q01DX009 (ip), vehicle: carboxymethylcellulose (CMC) 117 % of control | endpoint: mean survival time, dose: 20.0 mg/kg/injection, schedule: Q01DX001 (ip), vehicle: other 122 % of control | endpoint: mean survival time, dose: 20.0 mg/kg/injection, schedule: Q01DX001 (ip), vehicle: saline 96 % of control | endpoint: mean survival time, dose: 26.0 mg/kg/injection, schedule: Q01DX001 (ip), vehicle: carboxymethylcellulose (CMC) 120 % of control | endpoint: mean survival time, dose: 26.0 mg/kg/injection, schedule: Q01DX001 (ip), vehicle: other 115 % of control | endpoint: mean survival time, dose: 30.0 mg/kg/injection, schedule: Q01DX009 (ip), vehicle: carboxymethylcellulose (CMC) 101 % of control | endpoint: mean survival time, dose: 30.0 mg/kg/injection, schedule: Q01DX009 (ip), vehicle: other 96 % of control | endpoint: mean survival time, dose: 40.0 mg/kg/injection, schedule: Q01DX001 (ip), vehicle: other 124 % of control | endpoint: mean survival time, dose: 40.0 mg/kg/injection, schedule: Q01DX001 (ip), vehicle: saline 122 % of control | endpoint: mean survival time, dose: 80.0 mg/kg/injection, schedule: Q01DX001 (ip), vehicle: carboxymethylcellulose (CMC) 120 % of control | endpoint: mean survival time, dose: 80.0 mg/kg/injection, schedule: Q01DX001 (ip), vehicle: saline 114 % of control | endpoint: mean survival time, dose: 120.0 mg/kg/injection, schedule: Q01DX001 (ip), vehicle: carboxymethylcellulose (CMC) 88 % of control

CCCCCOC(=O)CN(CC(=O)OCCCCC)c1ccccc1
inactive: endpoint: mean survival time, dose: 100.0 mg/kg/injection, schedule: Q01DX009 (ip), vehicle: Klucel (hydroxypropylcellulose) (HPC) 88 % of control | [1] 101 % of control | endpoint: mean survival time, dose: 200.0 mg/kg/injection, schedule: Q01DX009 (ip), vehicle: Klucel (hydroxypropylcellulose) (HPC) 99 % of control | [2] 98 % of control | endpoint: mean survival time, dose: 400.0 mg/kg/injection, schedule: Q01DX009 (ip), vehicle: Klucel (hydroxypropylcellulose) (HPC) 91 % of control | [3] 95 % of control

Nc1ncnc2nc(I)[nH]c12
inactive: [4] 93 % of control | [5] 98 % of control

Cc1ccc(N=Nc2ccccn2)cc1
inactive: endpoint: mean survival time, dose: 100.0 mg/kg/injection, schedule: Q04DX002 (ip), vehicle: Klucel (hydroxypropylcellulose) (HPC) 104 % of control | endpoint: mean survival time, dose: 200.0 mg/kg/injection, schedule: Q04DX002 (ip), vehicle: Klucel (hydroxypropylcellulose) (HPC) 93 % of control | endpoint: mean survival time, dose: 400.0 mg/kg/injection, schedule: Q04DX002 (ip), vehicle: Klucel (hydroxypropylcellulose) (HPC) 93 % of control

CC(C)(C)C(=O)OCN1CCOCC1
inactive: endpoint: mean survival time, dose: 75.0 mg/kg/injection, schedule: Q01DX001 (ip), vehicle: saline 106 % of control | endpoint: mean survival time, dose: 150.0 mg/kg/injection, schedule: Q01DX001 (ip), vehicle: saline 103 % of control | endpoint: mean survival time, dose: 300.0 mg/kg/injection, schedule: Q01DX001 (ip), vehicle: saline 108 % of control

O=C(COc1ccc(Cl)cc1Cl)NC(O)C(Cl)(Cl)Cl (stereo unspecified)
inactive: endpoint: mean survival time, dose: 100.0 mg/kg/injection, schedule: Q01DX009 (ip), vehicle: saline with Tween-80 94 % of control | [1] 100 % of control | endpoint: mean survival time, dose: 200.0 mg/kg/injection, schedule: Q01DX009 (ip), vehicle: saline with Tween-80 87 % of control | [2] 97 % of control | endpoint: mean survival time, dose: 400.0 mg/kg/injection, schedule: Q01DX009 (ip), vehicle: saline with Tween-80 89 % of control | [3] 94 % of control

C1CC2C(CCCC23OCCO3)C2(C1)OCCO2 (stereo unspecified)
inactive: [6] 115 % of control and 111 % of control | [7] 94 % of control and 99 % of control | [8] 122 % of control and 107 % of control | [9] 112 % of control and 101 % of control | [10] 108 % of control and 98 % of control | [11] 109 % of control and 97 % of control

Cc1ccc([P+](Cc2ccccc2)(c2ccccc2)c2ccc(C)cc2)cc1
inactive: endpoint: mean survival time, dose: 15.0 mg/kg/injection, schedule: Q01DX001 (ip), vehicle: saline 96 % of control

O=C(NC(CSSCC(NC(=O)OCc1ccccc1)C(=O)O)C(=O)O)OCc1ccccc1 (stereo unspecified)
inactive: endpoint: mean survival time, dose: 85.0 mg/kg/injection, schedule: Q01DX009 (ip), vehicle: other 98 % of control | [6] 94 % of control and 98 % of control | endpoint: mean survival time, dose: 100.0 mg/kg/injection, schedule: Q04DX003 (ip), vehicle: other 98 % of control | [7] 90 % of control | endpoint: mean survival time, dose: 135.0 mg/kg/injection, schedule: Q01DX009 (ip), vehicle: other 88 % of control | endpoint: mean survival time, dose: 200.0 mg/kg/injection, schedule: Q01DX009 (ip), vehicle: other 97 % of control | [8] 118 % of control and 92 % of control | endpoint: mean survival time, dose: 200.0 mg/kg/injection, schedule: Q04DX003 (ip), vehicle: other 88 % of control | [9] 102 % of control | endpoint: mean survival time, dose: 300.0 mg/kg/injection, schedule: Q01DX009 (ip), vehicle: other 99 % of control | [10] 94 % of control and 104 % of control | endpoint: mean survival time, dose: 400.0 mg/kg/injection, schedule: Q04DX003 (ip), vehicle: other 96 % of control | [11] 101 % of control

Nc1cccc(C(=O)Nc2ccc(S(=O)(=O)F)cc2)c1
inactive: [4] 107 % of control | [5] 106 % of control | [12] 112 % of control

C1CNC(C2=NCCN2)=N1
inactive: [13] 100 % of control | [14] 100 % of control | [15] 90 % of control

CC(=O)OCC1OC(N2C(=O)/C(=C/c3ccc4ccccc4c3)SC2=S)C(OC(C)=O)C(OC(C)=O)C1OC(C)=O (stereo unspecified)
inactive: endpoint: mean survival time, dose: 25.0 mg/kg/injection, schedule: Q01DX005 (ip), vehicle: other 92 % of control | [16] 97 % of control

N#CC(C#N)c1ccc(C(C#N)C#N)cc1
inactive: endpoint: mean survival time, dose: 50.0 mg/kg/injection, schedule: Q01DX001 (ip), vehicle: saline 103 % of control | [4] 122 % of control | [5] 103 % of control

O=c1[nH]cc(COCC(F)(F)F)c(=O)[nH]1
inactive: [16] 106 % of control | endpoint: mean survival time, dose: 100.0 mg/kg/injection, schedule: Q01DX005 (ip), vehicle: other 95 % of control | endpoint: mean survival time, dose: 200.0 mg/kg/injection, schedule: Q01DX005 (ip), vehicle: other 106 % of control

COCCCN=C(N)N
inactive: endpoint: mean survival time, dose: 50.0 mg/kg/injection, schedule: Q04DX003 (ip), vehicle: saline 98 % of control | [7] 104 % of control | [9] 104 % of control

CN(C)C(=O)Sc1ccc(S(=O)(=O)F)cc1Cl
inactive: endpoint: mean survival time, dose: 100.0 mg/kg/injection, schedule: Q04DX003 (ip), vehicle: Klucel (hydroxypropylcellulose) (HPC) 101 % of control | endpoint: mean survival time, dose: 200.0 mg/kg/injection, schedule: Q04DX003 (ip), vehicle: Klucel (hydroxypropylcellulose) (HPC) 106 % of control | endpoint: mean survival time, dose: 400.0 mg/kg/injection, schedule: Q04DX003 (ip), vehicle: Klucel (hydroxypropylcellulose) (HPC) 101 % of control

COc1ccc(-c2ccccc2)cc1C(=O)CCC(=O)O
inactive: [4] 100 % of control | [5] 96 % of control | [12] 96 % of control

CCO/C(C)=N/N(C)c1n[n+]([O-])ccc1C
inactive: [14] 96 % of control | [15] 96 % of control
active: [13] 189 % of control

Cc1ccccc1C(O)C(Cl)(Cl)Cl (stereo unspecified)
inactive: endpoint: median survival time, dose: 50.0 mg/kg/injection, schedule: Q04DX003 (ip), vehicle: Klucel (hydroxypropylcellulose) (HPC) 118 % of control
active: endpoint: median survival time, dose: 200.0 mg/kg/injection, schedule: Q04DX003 (ip), vehicle: Klucel (hydroxypropylcellulose) (HPC) 157 % of control | endpoint: median survival time, dose: 400.0 mg/kg/injection, schedule: Q04DX003 (ip), vehicle: Klucel (hydroxypropylcellulose) (HPC) 204 % of control

— PubChem BioAssay AID248 (DTP/NCI, 2004)
